Test results as given in US10543212B2, “Substituted amines for treating cardiac diseases” (Cardurion Pharmaceuticals, LLC, priority 2017, dated 2020).
Counter-ions that a name gives are not always drawn.

target: T1, Full-length, GST-tagged, human CaMKIIδ (Homo sapiens, UniProt Q13557); test: CaMKIIδ binding assay (TR-FRET with BODIPY-labeled probe ligand); conditions: CaMKIIδ binding assay, results of Table 2
T1 construct: Full-Length, Glutathione-S-Transferase(GST)-Tagged, Human CaMKIIδ was purchased from Carna Biosciences; purchased Carna Biosciences 02-111
How it was run: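 TR-FRET probe-displacement binding: 0.5 nM GST-CaMKIIδ with 10 μg/mL calmodulin, 1 mM CaCl2, 0.21 nM Tb-anti-GST Ab and 300 nM BODIPY probe in HEPES pH 7.6 buffer. Eight-point 4-fold dilutions, 1 hr at room temperature. IC50 from logistic fit; 100% inhibition defined by 3 μM parent compound.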

T1 sequence (Q13557 1-478 isoform Q13557-12): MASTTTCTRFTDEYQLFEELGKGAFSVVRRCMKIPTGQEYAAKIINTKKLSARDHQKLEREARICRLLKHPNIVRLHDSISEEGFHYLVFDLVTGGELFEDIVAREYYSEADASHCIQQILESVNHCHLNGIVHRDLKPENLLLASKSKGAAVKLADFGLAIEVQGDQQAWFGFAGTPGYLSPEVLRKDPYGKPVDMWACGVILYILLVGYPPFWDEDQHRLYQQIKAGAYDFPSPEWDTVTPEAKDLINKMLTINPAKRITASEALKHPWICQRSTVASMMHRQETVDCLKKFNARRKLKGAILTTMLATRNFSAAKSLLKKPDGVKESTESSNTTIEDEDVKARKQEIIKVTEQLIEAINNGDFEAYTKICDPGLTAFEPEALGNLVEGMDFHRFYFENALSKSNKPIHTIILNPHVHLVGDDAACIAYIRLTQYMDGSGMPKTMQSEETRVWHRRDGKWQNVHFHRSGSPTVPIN

In the case of `C[C@@H](Cn1cnnn1)Oc1cc(-c2cnc(Nc3cn(C4CCN(Cc5ccncc5)CC4)nc3C(F)(F)F)nc2)ccc1Cl` [Example 550, (S)-5-(3-((1-(1H-tetrazol-1-yl)propan-2-yl)oxy)-4-chlorophenyl)-N-(1-(1-(pyridin-4-ylmethyl)piperidin-4-yl)-3-(trifluoromethyl)-1H-pyrazol-4-yl)pyrimidin-2-amine], the IC50 is reported as 10 to 100 nM.

same assay, conditions: CaMKIIδ binding assay; activity class per Table 2

First: C[C@@H](Cn1cnnn1)Oc1cc(-c2cnc(Nc3cn(CCNS(C)(=O)=O)nc3C(F)(F)F)nc2)ccc1Cl [Example 884, (S)-N-(2-(4-((5-(3-((1-(1H-tetrazol-1-yl)propan-2-yl)oxy)-4-chlorophenyl)pyrimidin-2-yl)amino)-3-(trifluoromethyl)-1H-pyrazol-1-yl)ethyl)methanesulfonamide]
Second: C[C@@H](Cn1cnnn1)Oc1cc(-c2cnc(Nc3cn(CC4(O)CCN(C5CCOCC5)CC4)nc3C(F)(F)F)nc2)ccc1Cl [Example 905, (S)-4-((4-((5-(3-((1-(1H-tetrazol-1-yl)propan-2-yl)oxy)-4-chlorophenyl)pyrimidin-2-yl)amino)-3-(trifluoromethyl)-1H-pyrazol-1-yl)methyl)-1-(tetrahydro-2H-pyran-4-yl)piperidin-4-ol]
The IC50 of the first is higher: 10 to 100 nM for the first, less than 10 nM for the second. The second is the more potent here.

`CC(C)c1nn(C2CC3(C2)CN(C2(C)CCOC2)C3)cc1Nc1ncc(-c2ccc(Cl)c(O[C@@H](C)Cn3cnnn3)c2)cn1` (stereo partly drawn) [Example 956, 5-(3-(((S)-1-(1H-tetrazol-1-yl)propan-2-yl)oxy)-4-chlorophenyl)-N-(3-isopropyl-1-(2-(3-methyltetrahydrofuran-3-yl)-2-azaspiro[3.3]heptan-6-yl)-1H-pyrazol-4-yl)pyrimidin-2-amine] and `C[C@@H](Cn1cnnn1)Oc1cc(-c2cnc(Nc3cn(C4CC5(C4)CN(C4(C)CCOC4)C5)nc3OCC(F)(F)F)nc2)ccc1Cl` (stereo partly drawn) [Example 954, 5-(3-(((S)-1-(1H-tetrazol-1-yl)propan-2-yl)oxy)-4-chlorophenyl)-N-(1-(2-(3-methyltetrahydrofuran-3-yl)-2-azaspiro[3.3]heptan-6-yl)-3-(2,2,2-trifluoroethoxy)-1H-pyrazol-4-yl)pyrimidin-2-amine] cannot be ordered by IC50: less than 10 nM for the first, less than 10 nM for the second.

For `CCC1(N2CC3(CC(n4cc(Nc5ncc(-c6ccc(Cl)c(O[C@@H](C)Cn7cnnn7)c6)cn5)c(OCC(F)(F)F)n4)C3)C2)CCOCC1` [Example 955, (S)-5-(3-((1-(1H-tetrazol-1-yl)propan-2-yl)oxy)-4-chlorophenyl)-N-(1-(2-(4-ethyltetrahydro-2H-pyran-4-yl)-2-azaspiro[3.3]heptan-6-yl)-3-(2,2,2-trifluoroethoxy)-1H-pyrazol-4-yl)pyrimidin-2-amine], the IC50 was less than 10 nM.

same assay, conditions: Table 2; CaMKIIδ binding assay, activity given as class A/B/C

`C[C@@H](Cn1cnnn1)Oc1cc(-c2cnc(Nc3cn([C@@H](C)CO)nc3OCC(F)(F)F)nc2)ccc1Cl` [Example 775, (S)-2-(4-((5-(3-(((S)-1-(1H-tetrazol-1-yl)propan-2-yl)oxy)-4-chlorophenyl)pyrimidin-2-yl)amino)-3-(2,2,2-trifluoroethoxy)-1H-pyrazol-1-yl)propan-1-ol] and `C[C@@H](Cn1cnnn1)Oc1cc(-c2cnc(Nc3cn([C@H]4CC[C@H](N5CC(C)(O)C5)CC4)nc3OCC(F)(F)F)nc2)ccc1Cl` [Example 802, 1-(trans-4-(4-((5-(3-(((S)-1-(1H-tetrazol-1-yl)propan-2-yl)oxy)-4-chlorophenyl)pyrimidin-2-yl)amino)-3-(2,2,2-trifluoroethoxy)-1H-pyrazol-1-yl)cyclohexyl)-3-methylazetidin-3-ol] cannot be ordered by IC50: less than 10 nM for the first, less than 10 nM for the second.

`C[C@@H](Cn1cnnn1)Oc1cc(-c2cnc(Nc3ccn(C)n3)nc2)ccc1Cl` [Example 755, (S)-5-(3-((1-(1H-tetrazol-1-yl)propan-2-yl)oxy)-4-chlorophenyl)-N-(1-methyl-1H-pyrazol-3-yl)pyrimidin-2-amine] and `CCn1cc(Nc2ncc(-c3ccc(Cl)c(O[C@@H](C)Cn4cnnn4)c3)cn2)c(C(=O)O)n1` [Example 876, (S)-4-((5-(3-((1-(1H-tetrazol-1-yl)propan-2-yl)oxy)-4-chlorophenyl)pyrimidin-2-yl)amino)-1-ethyl-1H-pyrazole-3-carboxylic acid] fall in the same range of IC50: 10 to 100 nM for the first, 10 to 100 nM for the second.

Going from `C[C@@H](Cn1cnnn1)Oc1cc(-c2cnc(Nc3cn(CC(C)(C)NC(=O)OC(C)(C)C)nc3C(F)(F)F)nc2)ccc1Cl` [Example 860, tert-butyl (S)-(1-(4-((5-(3-((1-(1H-tetrazol-1-yl)propan-2-yl)oxy)-4-chlorophenyl)pyrimidin-2-yl)amino)-3-(trifluoromethyl)-1H-pyrazol-1-yl)-2-methylpropan-2-yl)carbamate] to `C[C@@H](Cn1cnnn1)Oc1cc(-c2cnc(Nc3cn(C4CC5(C4)CN(CC(C)(C)O)C5)nc3C(F)(F)F)nc2)ccc1Cl` [Example 859, (S)-1-(6-(4-((5-(3-((1-(1H-tetrazol-1-yl)propan-2-yl)oxy)-4-chlorophenyl)pyrimidin-2-yl)amino)-3-(trifluoromethyl)-1H-pyrazol-1-yl)-2-azaspiro[3.3]heptan-2-yl)-2-methylpropan-2-ol], the IC50 falls from no less than 100 nM to less than 10 nM.

`C[C@@H](Cn1cnnn1)Oc1cc(-c2cnc(Nc3cn([C@H]4CC[C@H](N5CCOCC5)CC4)nc3OCC(F)(F)F)nc2)ccc1C#N` [Example 817, 2-(((S)-1-(1H-tetrazol-1-yl)propan-2-yl)oxy)-4-(2-((1-(trans-4-morpholinocyclohexyl)-3-(2,2,2-trifluoroethoxy)-1H-pyrazol-4-yl)amino)pyrimidin-5-yl)benzonitrile hydrochloride] gave an IC50 of less than 10 nM.

same assay, conditions: Table 2; activity class for CaMKIIδ

First: C[C@@H](Cn1cnnn1)Oc1cc(-c2cnc(Nc3cn(C4CN(C5CCOCC5)C4)nc3C(F)(F)F)nc2)ccc1Cl [Example 698, (S)-5-(3-((1-(1H-tetrazol-1-yl)propan-2-yl)oxy)-4-chlorophenyl)-N-(1-(1-(tetrahydro-2H-pyran-4-yl)azetidin-3-yl)-3-(trifluoromethyl)-1H-pyrazol-4-yl)pyrimidin-2-amine]
Second: C[C@@H](Cn1cnnn1)Oc1cc(-c2cnc(Nc3cn(C4CCN(C5COC5)C4)nc3C(F)(F)F)nc2)ccc1Cl (stereo partly drawn) [Example 619, 5-(3-(((S)-1-(1H-tetrazol-1-yl)propan-2-yl)oxy)-4-chlorophenyl)-N-(1-(1-(oxetan-3-yl)pyrrolidin-3-yl)-3-(trifluoromethyl)-1H-pyrazol-4-yl)pyrimidin-2-amine]
The IC50 of the first is lower: less than 10 nM for the first, 10 to 100 nM for the second.

Compared with `C[C@@H](Cn1cnnn1)Oc1cc(-c2cnc(Nc3cn(C4CCCNC4)nc3C(F)(F)F)nc2)ccc1Cl` (stereo partly drawn) [Example 600, 5-(3-(((S)-1-(1H-tetrazol-1-yl)propan-2-yl)oxy)-4-chlorophenyl)-N-(1-(piperidin-3-yl)-3-(trifluoromethyl)-1H-pyrazol-4-yl)pyrimidin-2-amine], `C[C@@H](Cn1cnnn1)Oc1cc(-c2cnc(Nc3cn(C4CN(C(=O)OC(C)(C)C)C4)nc3C(F)(F)F)nc2)ccc1Cl` [Example 696, tert-butyl (S)-3-(4-((5-(3-((1-(1H-tetrazol-1-yl)propan-2-yl)oxy)-4-chlorophenyl)pyrimidin-2-yl)amino)-3-(trifluoromethyl)-1H-pyrazol-1-yl)azetidine-1-carboxylate] is higher in IC50: less than 10 nM for the first, 10 to 100 nM for the second. The first is the more potent here.

With `CCn1cc(Nc2ncc(-c3ccc(Cl)c(O[C@@H](C)Cn4cnnn4)c3)cn2)c(N2CCOCC2)n1` [Example 624, (S)-5-(3-((1-(1H-tetrazol-1-yl)propan-2-yl)oxy)-4-chlorophenyl)-N-(1-ethyl-3-morpholino-1H-pyrazol-4-yl)pyrimidin-2-amine] the IC50 was no less than 100 nM.
